We go through 15 molecules from ChEMBL document CHEMBL5260836, “Combating Autoimmune Diseases With Retinoic Acid Receptor-Related Orphan Receptor-γ (RORγ or RORc) Inhibitors: Hits and Misses” (J Med Chem, 2018).

Data set [1] has as its target T1, Nuclear receptor ROR-gamma (Homo sapiens, UniProt P51449).
T1 sequence (P51449 whole entry): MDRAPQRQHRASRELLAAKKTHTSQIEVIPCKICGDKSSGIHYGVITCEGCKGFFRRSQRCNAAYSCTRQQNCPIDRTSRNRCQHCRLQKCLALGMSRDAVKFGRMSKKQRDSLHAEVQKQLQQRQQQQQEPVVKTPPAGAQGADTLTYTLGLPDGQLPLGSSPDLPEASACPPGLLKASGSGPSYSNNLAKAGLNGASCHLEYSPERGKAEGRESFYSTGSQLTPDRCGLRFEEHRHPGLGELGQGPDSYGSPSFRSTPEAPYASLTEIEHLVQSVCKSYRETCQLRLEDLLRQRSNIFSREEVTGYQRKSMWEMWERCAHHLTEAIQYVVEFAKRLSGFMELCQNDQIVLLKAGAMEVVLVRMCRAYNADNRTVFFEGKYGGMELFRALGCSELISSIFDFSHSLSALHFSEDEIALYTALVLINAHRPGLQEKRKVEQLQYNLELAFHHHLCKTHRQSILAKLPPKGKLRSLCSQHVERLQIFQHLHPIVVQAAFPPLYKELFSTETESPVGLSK
Briefly: Inhibition of human GAL4-fused RORgamma LBD transfected in HEK293T cell measured after 24 hrs by luciferase reporter assay. Type of data set: cell-based. (A reporter such as luciferase makes a cellular process visible.)

Data set [2] in a line: Inhibition of IL-17 production in human BAL cells isolated from COPD patients measured after 72 hrs by ELISA based assay. Type of data set: functional. As to conditions: Bronchoalveolar lavage cell.
A short description of data set [3]: Inhibition of IL-17 production in human PBMC isolated from COPD patients measured after 72 hrs by ELISA based assay. Type of data set: functional, cell-based.
Data set [4] is described as follows: cells. As to conditions: Homo sapiens, Th17.
Description: Inhibition of IL-17 production in human Th17 cells
For data set [5], the target named is T1, Nuclear receptor ROR-gamma. The data set is described as follows: Inhibition of human RORgammat expressed in COS7 cells by luciferase assay. The data set is classed as cell-based.
A short description of data set [6]: cells. As to conditions: Homo sapiens, PBMC.
Data set [7] has as its target hERG (KCNH2) (Homo sapiens, UniProt Q12809). The data set is described as follows: Inhibition of human ERG at 3 uM relative to control. Type of data set: toxicity.
Data set [8] addresses T1, Nuclear receptor ROR-gamma. Briefly: Antagonist activity at RORgammat LBD (unknown origin) assessed as fluorescent polarization signal measured in presence of fluorescein-labeled LXR agonist T0901317 after 4 hrs by competitive binding assay.
A short description of data set [9]: Inhibition of IL-17A production in human PBMC by ELISA. Type of data set: functional, cell-based. For orientation: An ELISA detects its analyte on a solid surface through an enzyme-linked reagent.
Data set [10] is described as follows: Inhibition of IL-17F production in human PBMC by ELISA. Type of data set: functional, cell-based.
The nature of data set [11]: Inhibition of IL-21 production in human PBMC by ELISA. Type of data set: functional, cell-based.
Data set [12] can be described thus: Inhibition of IL-22 production in human PBMC by ELISA. The data set is classed as functional, cell-based.
Data set [13] has as its target T1, Nuclear receptor ROR-gamma. Briefly: Inverse agonist activity at human GAL4-RORgamma […] expressed in HEK293 cells measured after 24 hrs by ligand binding assay. The data set is classed as cell-based.
Data set [14] concerns the target T1, Nuclear receptor ROR-gamma. Briefly: Inhibition of human GAL4-fused RORgammat LBD transfected in Escherichia coli BL21(DE3) cell measured after 16 hrs by HTRF assay.
Data set [15] can be described thus: Oral bioavailability in rat. Type of data set: ADME, organism-based. As to conditions: in vivo.
Data set [16] has as its target T1, Nuclear receptor ROR-gamma. Briefly: Inverse agonist activity at His-tagged human RORgammat LBD assessed as inhibition of biotinylated RIP140 co-activator peptide binding incubated for 1 hr by TR-FRET assay.
The species named for data set [17] is Homo sapiens. Briefly: Inhibition of IL-17 production in human whole blood measured after 72 hrs by ELISA. The data set is classed as functional.
The nature of data set [18]: Unbound fraction in human blood. The data set is classed as ADME, tissue-based.
A short description of data set [19]: Unbound fraction in rat blood. The data set is classed as ADME, tissue-based.
In data set [20] the test system is Mus musculus. The data set is described as follows: Anti-arthritis activity against glucose-6-phosphate isomerase-induced arthritis DBA/1 mouse model assessed as reduction in paw swelling clinical score at 1000 mg/kg, po. The data set is classed as functional.
Data set [21] is described as follows: cells. The note with it: Homo sapiens, PBMC. The source holds these as a separate data set.
Description: Inhibition of IL-17A secretion in human PBMC cells
A short description of data set [22]: Inhibition of IL-17A production in human PBMC derived from rheumatoid arthritis. The data set is classed as functional, cell-based.
For data set [23], the system named is Mus musculus. Briefly: Anti-arthritis activity against collagen-induced arthritis DBA/1Lacj mouse model assessed as arthritis clinical score at 60 mg/kg, po twice daily from day 21 to 35 relative to control. The data set is classed as functional. As to conditions: 504 h.
Data set [24] relates to Mus musculus. The data set is described as follows: Anti-arthritis activity against collagen-induced arthritis DBA/1Lacj mouse model assessed as arthritis clinical score at 30 mg/kg, po twice daily from day 21 to 35 relative to control. The data set is classed as functional. The note with it: 504 h.
For data set [25], the system named is Mus musculus. Briefly: Anti-arthritis activity against collagen-induced arthritis DBA/1Lacj mouse model assessed as arthritis clinical score at 10 mg/kg, po twice daily from day 21 to 35 relative to control. The data set is classed as functional. As to conditions: 504 h.
Data set [26] in a line: Inhibition of human Th17 cell differentiation. The data set is classed as functional, cell-based.

Chain of hERG (KCNH2) (Q12809 whole entry, the tested form may be a part): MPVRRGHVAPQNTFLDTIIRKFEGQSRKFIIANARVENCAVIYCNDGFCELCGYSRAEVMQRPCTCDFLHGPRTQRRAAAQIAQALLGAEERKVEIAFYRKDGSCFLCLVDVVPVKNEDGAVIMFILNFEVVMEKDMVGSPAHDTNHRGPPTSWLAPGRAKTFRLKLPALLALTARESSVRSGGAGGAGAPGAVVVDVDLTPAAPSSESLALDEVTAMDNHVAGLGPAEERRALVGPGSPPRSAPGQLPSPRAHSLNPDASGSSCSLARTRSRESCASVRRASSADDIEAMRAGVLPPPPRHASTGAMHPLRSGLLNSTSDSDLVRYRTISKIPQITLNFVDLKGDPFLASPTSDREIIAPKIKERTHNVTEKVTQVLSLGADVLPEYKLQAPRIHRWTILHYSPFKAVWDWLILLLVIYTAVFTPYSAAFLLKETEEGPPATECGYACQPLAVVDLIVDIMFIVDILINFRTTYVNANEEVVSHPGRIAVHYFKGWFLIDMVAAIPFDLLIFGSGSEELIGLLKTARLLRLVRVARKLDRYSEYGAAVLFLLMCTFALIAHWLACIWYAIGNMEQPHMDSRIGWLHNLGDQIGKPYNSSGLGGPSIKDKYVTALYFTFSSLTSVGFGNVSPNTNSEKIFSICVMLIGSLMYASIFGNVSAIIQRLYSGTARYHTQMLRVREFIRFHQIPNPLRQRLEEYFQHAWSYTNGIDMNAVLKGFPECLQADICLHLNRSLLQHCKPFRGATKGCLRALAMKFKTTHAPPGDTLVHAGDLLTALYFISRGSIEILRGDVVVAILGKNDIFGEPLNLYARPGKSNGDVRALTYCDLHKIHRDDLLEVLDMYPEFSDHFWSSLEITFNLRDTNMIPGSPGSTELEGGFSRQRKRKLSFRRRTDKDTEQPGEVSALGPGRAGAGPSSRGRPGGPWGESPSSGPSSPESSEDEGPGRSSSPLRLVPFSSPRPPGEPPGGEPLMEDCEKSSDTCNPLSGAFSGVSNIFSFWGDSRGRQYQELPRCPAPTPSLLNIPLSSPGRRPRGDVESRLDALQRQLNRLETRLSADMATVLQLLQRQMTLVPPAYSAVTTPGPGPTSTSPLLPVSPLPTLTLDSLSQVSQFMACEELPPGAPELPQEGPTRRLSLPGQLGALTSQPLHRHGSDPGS

In general, IC50 refers to the midpoint of a concentration-inhibition curve. `CCS(=O)(=O)c1ccc(CNc2nc3c(C)nc(-c4c(C)ncnc4C4CC4)nc3n([C@@H](C)C3CC3)c2=O)nc1` yielded an IC50 in data set [1] of 60 nM.

As for `CCn1c(C(C)(C)Oc2ccc(F)cc2F)nc2cc(NC(=O)Cc3ccc(S(=O)(=O)CC)cc3)ccc21`, the 50% inhibitory concentration (IC50) in data set [2] came out at 350 nM; in [3], 147 nM.

`COc1c(NC(=O)c2cccc(C#N)c2)cnc2c1c(C1CCN(C(=O)C3CCCC3)CC1)cn2C` gave a 50% inhibitory concentration (IC50) in data set [4] of 29.8 nM.

On to `CCS(=O)(=O)c1ccc(CC(=O)Nc2cc(Cl)c(C3(c4noc(-c5ccc(F)cc5)n4)CC3)c(Cl)c2)cc1`, for which the IC50 in data set [5] was found to be 2.1 nM; in [6] it was 6.6 nM.

What is called inhibition is the relative decrease from the control value, in per cent. Low values mean a response near the control, high ones a response far below the control. Turning to `CC[C@H]1c2ncc(C(=O)N[C@@H](CO)c3ccc(S(=O)(=O)CC)cn3)cc2CN1C[C@H]1CC[C@H](C(F)(F)F)CC1`, the inhibition at 3 µM in data set [7] was 7.7%.

Regarding `C[C@H]1CN(Cc2cncc(NS(=O)(=O)c3c(Cl)cc(Cl)cc3Cl)c2)CCN1C(=O)C1CCCC1`, in [8], the IC50 is 89 nM.

Turning to `O=S(=O)(c1ccccc1)N1CCC(Cn2ncc3cc(-c4cn[nH]c4)ccc32)CC1`, the concentration for half-maximal inhibition (IC50) in data set [9], in data set [10], in [11] and in data set [12] was under 10000 nM in each case.

Molecule `O=C(O)CC1CN(Cc2ccc(-c3ccc(C(O)(C(F)(F)F)C(F)(F)F)cc3)cc2)CCN1Cc1ccncc1` (centres undefined) came in with an IC50 in data set [13] of over 10000 nM.

In turn, `O=C(O)c1ccc(-c2nn(C(=O)c3c(Cl)cccc3C(F)(F)F)c3cccnc23)c(F)c1` gave a 50% inhibitory concentration (IC50) in [14] of 2 nM.

A word on the bioavailability: it is the share of a dose that reaches the circulation, judged against a reference dose that is usually intravenous. High values mean much systemic uptake, low ones little systemic uptake. What is called fraction unbound is free concentration divided by total concentration. A low value points to little free substance. Molecule `Cc1ncc(C(=O)Nc2cn3ccnc3c(CN3CCN(C(=O)C4CCCC4)[C@@H](C)C3)c2C)cn1` had a bioavailability in [15] of 23%. Also, the half-inhibitory concentration (IC50) was found to be 13 nM in data set [16] and 168 nM in data set [17]. For the same molecule, the fraction unbound worked out at 0.312 in data set [18] and 0.256 in [19].

In data set [4], `C[C@H]1CCCCN1C(=O)c1nc(C(=O)NCC(C)(C)O)sc1-c1cnc(NCC(C)(C)C)cc1C(F)(F)F` gave a half-maximal inhibitory concentration (IC50) of 2.8 nM.

One may read the inhibition in vivo as how much of the control response was suppressed. `CCS(=O)(=O)c1ccc(CNC(=O)c2cc3c(s2)C2(CCN([C@H](C)c4cnc(C(F)(F)F)nc4)CC2)O[C@@H](C)C3)nc1`: the inhibition in vivo at 1000 mg/kg in [20] came to 75%. In [21], the half-inhibitory concentration (IC50) came to 20 nM.

In the case of `COc1nc2ccc([C@](O)(c3ccc(C)nc3C)c3cnnn3C)cc2c(Cl)c1Cc1ccc(C(F)(F)F)cc1`, 5 nM corresponded to half-maximal inhibition in [22] (IC50). The inhibition in vivo at 60 mg/kg in [23] was 78%. Also, the inhibition in vivo at 30 mg/kg in [24] is 46%. The inhibition in vivo at 10 mg/kg in data set [25] is 32%.

The molecule `O=C(Nc1ccc2c(c1)CN(S(=O)(=O)c1cccc(C(F)(F)F)c1)CCC2)c1c(F)cccc1Cl` returned a 50% inhibitory concentration (IC50) in [4] of 40 nM.

As to `Cc1ncc(C(=O)Nc2cc(F)cc(CN3CCN(C(=O)C4CCCC4)[C@@H](C)C3)c2C)cn1`, the half-inhibitory concentration (IC50) in data set [5] is 97 nM; in data set [26] it was 31 nM.
